Several values for one entry are separate records, joined by “and”; a condition that tells them apart may be missing. Identical values can stand only once.
Assay: Solubility of the compound of formula (I-S) in toluene as a function of OPPh3 concentration
Format: physicochemical
Conditions: 21° C.

Solubility (g/100 g toluene) (OPPH3 0.05 mol/L): 1.6 g/100 g toluene
Solubility (g/100 g toluene) (OPPH3 0.10 mol/L): 2.3 g/100 g toluene
Solubility (g/100 g toluene) (OPPH3 0.15 mol/L): 4.2 g/100 g toluene
Solubility (g/100 g toluene) (OPPH3 0.25 mol/L): 6.0 g/100 g toluene
Solubility (g/100 g toluene) (OPPH3 0.30 mol/L): 8.2 g/100 g toluene
Solubility (g/100 g toluene) (OPPH3 0.40 mol/L): 9.6 g/100 g toluene
Compound: NS(=O)(=O)NC[C@H]1COc2cc(Cl)ccc2O1 [compound of formula (I-S), N-[[(2S)-6-chloro-2,3-dihydro-1,4-benzodioxin-2-yl]methyl]-sulfamide]
Solubility (g/100 g toluene) (OPPH3 0.20 mol/L): 5.9 g/100 g toluene and 5.0 g/100 g toluene
Solubility, trend with OPPh3 concentration (OPPh3 0.05-0.40 mol/L): increases with increased OPPh3 concentration

— patent US8809554B2, “Process for the preparation of sulfamide derivatives” (Janssen Pharmaceutica NV, priority 2011, dated 2014)
